Results on 13 molecules are retold here after US20050065140A1, “Serotonine reuptake inhibitor” (priority 2001, published 2005).

Assay [1] deals with T1, [^3H]paroxetine binding (serotonin reuptake), cerebral cortex membrane preparation (Rattus norvegicus, UniProt P31652).
T1 construct: 790 μl of the cerebral cortex membrane preparation (150 μg/tube in terms of protein); from tissue; host or cells: rat cerebral cortex membrane preparation
The experiment in a line: Screening test using [^3H]paroxetine binding (Test Example 1). The note with it: [^3H]paroxetine 0.15 nM, test concentration not given. The protocol: Screening Test Using [^3H]Paroxetine Binding
The membrane preparation was prepared according to the method^1a) of D'amato et al. In detail, after a male rat was decapitated, the whole brain was immediately removed and the cerebral cortex was dissected therefrom under ice-cooling. A buffer solution (50 mM Tris-HCl (pH=7.4), 120 mM NaCl, 5 mM KCl) was added to the cerebral cortex in an amount of 25 times the wet weight of the cerebral cortex, followed by homogenization in an ice bath by the use of a Teflon-glass homogenizer. The homogenate was centrifuged at 4° C. and 45,000×g for 10 minutes, and the resulting precipitate was dispersed in an ice-cooled buffer solution (50 mM Tris-HCl (pH=7.4), 120 mM NaCl, 5 mM KCl) by the use of Hiscotron™, followed by centrifugation at 4° C. and 45,000×g for 10 minutes. The resulting precipitate was re-suspended and the washing procedure was repeated. The membrane preparation thus obtained was suspended in the same buffer solution as described above, and then subjected to cryopreservation at −80° C.
[^3H]paroxetine binding was measured according to the method^1b) of Habert E et al. In detail, 200 μl of a dilution (final concentration: 0.15 nM) of [^3H]paroxetine with 50 mM Tris-HCl (pH=7.4) buffer containing 120 mM NaCl and 5 mM KCl, 790 μl of the cerebral cortex membrane preparation (150 μg/tube in terms of protein), 10 μl of a solution of a test drug in dimethyl sulfoxide and 1 ml of the above-mentioned buffer solution were mixed to prepare a liquid having a total volume of 2 ml. After this liquid was allowed to react at room temperature for 60 minutes, it was immediately filtered by suction at a low pressure through glass fiber filter. The glass fiber filter was washed 4 times with 4 ml of the same buffer solution as above and then transferred to a glass vial containing 4 ml of ACS-II (Amersham), and the radioactivity remaining on the filter was measured with a liquid scintillation counter.
Non-specific binding of [^3H]paroxetine was defined as the amount of [^3H]paroxetine bound in the presence of 100 μM 5-HT.
Rate of binding inhibition was calculated by the following equation:
Rate of binding inhibition (%)=100−100×{[amount of [^3H]paroxetine bound in the presence of test substance]−[amount of [^3H]paroxetine bound in the presence of 100 μM 5-HT]/[amount of [^3H]paroxetine bound in the absence of test substance]−[amount of [^3H]paroxetine bound in the presence of 100 μM 5-HT]}

For assay [2], the target named is T2, human 5-HT1A receptor (Homo sapiens, UniProt P08908).
T2 construct: expressed in transfected cells; host or cells: CHO cells (human 5-HT1A/CHO), membrane preparation
T2 sequence (P08908 1-422): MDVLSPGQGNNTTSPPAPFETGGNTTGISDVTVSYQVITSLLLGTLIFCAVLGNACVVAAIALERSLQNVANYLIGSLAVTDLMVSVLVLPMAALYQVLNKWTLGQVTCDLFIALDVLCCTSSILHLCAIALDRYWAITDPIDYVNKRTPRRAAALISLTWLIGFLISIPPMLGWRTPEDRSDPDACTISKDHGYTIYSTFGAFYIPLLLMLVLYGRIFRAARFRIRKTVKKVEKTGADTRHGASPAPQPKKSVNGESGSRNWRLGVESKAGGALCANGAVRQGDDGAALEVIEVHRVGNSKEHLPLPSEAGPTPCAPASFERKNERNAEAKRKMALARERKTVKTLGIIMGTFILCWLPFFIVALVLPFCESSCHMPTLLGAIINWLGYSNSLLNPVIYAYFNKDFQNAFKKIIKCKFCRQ
Briefly: 5-HT1A receptor stimulation test, [^35S]GTPγS binding (Test Example 3). Format: biochemical. The note with it: 10^-5 M test substance; membranes of human 5-HT1A/CHO cells; increase in [^35S]GTPγS binding caused by 10 μM 5-HT taken as 100%. The protocol: 5-HT1A Receptor Stimulation Test
CHO cells expressing human 5-HT1A receptor (human 5-HT1A/CHO) were used in the experiment. The cells were cultured in F12 containing 10% FCS, 500 μg/ml Geneticin and 100 U/ml penicillin-100 μg/ml streptomycin (all available from GIBCO) in a 5% CO2 incubator, and a membrane preparation was prepared according to the method^3)of A. Newman et al. In detail, cells scraped and collected by the use of buffer solution A (20 mM HEPES, 5 mM MgSO4) were homogenized in a Teflon™ homogenizer, followed by centrifugation (50,000×g, 30 min, 4° C.). The precipitate was re-suspended in a suitable volume of buffer solution A and stored at −80° C. until use. The amount of protein in the membrane preparation was determined with Dye Reagent Concentrate (BIO-RAD) by using Albumin Bovine (SIGMA) as a standard substance.
Binding of [^35S]GTPγS to human 5-HT1A receptors was measured by the use of the above-mentioned membrane preparation according to the method^3)of A. Newman et al. In detail, 0.05 nM of [^35S]GTPγS (E.I. du Pont de Nemours & Co. NEN) and a definite amount (about 50 μg/tube) of the membrane preparation were added to buffer solution B (20 mM HEPES, 3 mM MgSO4, 3 μM GDP, 1 mM DTT) containing 10^−5 M of each test substance, and the resulting liquid for reaction having a total volume of 1 ml was incubated at 22° C. for 20 minutes. After completion of the reaction, the reaction mixture was diluted with 5 ml of ice-cooled buffer solution B, and the dilution was immediately filtered by suction through glass fiber filter (Whatman, GF/B) to terminate the reaction. The glass fiber filter was washed twice with the same buffer solution as above and placed in a vial, and 4 ml of ACS-II was added thereto. The radioactivity of [^35S]GTPγS on the filter was measured with a liquid scintillation counter. The amount of [^35S]GTPγS specifically bound was calculated from the amount of [^35S]GTPγS non-specifically bound in the presence of 10 μM of GTPγS (Sigma). The 5-HT1A receptor stimulating activity of each test substance was expressed in terms of the rate of increase in [^35S]GTPγS binding by taking an increase in [^35S]GTPγS binding caused by 10 μM of 5-HT, as 100%.
In general terms: GTPγS is a poorly hydrolysed GTP analogue; its binding reports G protein activation.

Structures are written as SMILES.

T1 sequence (P31652 whole entry): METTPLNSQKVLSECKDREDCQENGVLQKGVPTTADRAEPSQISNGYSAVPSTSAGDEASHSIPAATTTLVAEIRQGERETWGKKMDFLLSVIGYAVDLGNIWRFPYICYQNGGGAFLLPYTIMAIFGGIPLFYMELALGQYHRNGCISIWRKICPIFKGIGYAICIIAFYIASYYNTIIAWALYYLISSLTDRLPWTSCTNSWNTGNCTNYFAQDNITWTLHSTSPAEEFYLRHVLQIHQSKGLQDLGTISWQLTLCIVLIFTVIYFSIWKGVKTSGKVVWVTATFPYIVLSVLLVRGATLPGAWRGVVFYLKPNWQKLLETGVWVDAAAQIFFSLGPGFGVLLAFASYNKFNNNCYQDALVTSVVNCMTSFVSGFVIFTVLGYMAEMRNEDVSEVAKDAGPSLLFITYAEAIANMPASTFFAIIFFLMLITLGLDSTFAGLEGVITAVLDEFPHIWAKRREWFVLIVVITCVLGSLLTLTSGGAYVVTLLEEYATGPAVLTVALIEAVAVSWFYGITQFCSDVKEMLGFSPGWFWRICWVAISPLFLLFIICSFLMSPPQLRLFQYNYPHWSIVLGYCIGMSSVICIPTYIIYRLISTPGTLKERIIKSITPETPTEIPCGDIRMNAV

`COc1ccc(Br)c(CC2CCN(CC[C@H]3CC[C@@H](CCO)CC3)CC2)c1.Cl` [Example 64, cis-2-(4-(2-(4-(2-Bromo-5-methoxybenzyl)-piperidin-1-yl)ethyl)cyclohexyl)ethanol Hydrochloride]: in assay [1], the “Rate of inhibition of [^3H]paroxetine binding (%)” value (from here on “Rate of inhibition … (%)”) is reported as 96%. Moreover, the “5-HT1A receptor stimulating activity (%)” value in assay [2] is listed as 19%.
Take `COc1ccc(Br)c(CC2CCN(CC3CCc4ccccc4N3)CC2)c1.Cl.Cl` (centres unmarked) [Example 69, 2-((4-(2-Bromo-5-methoxybenzyl)piperidin-1-yl)methyl)-1,2,3,4-tetrahydroquinoline Dihydrochloride]: in assay [1], the “Rate of inhibition … (%)” value was determined as 95%. For the same molecule, the “5-HT1A receptor stimulating activity (%)” value in assay [2] is recorded as 63%.
As to `CCN(CCOC)[C@H]1CC[C@H](CCN2CCC(Cc3cc(OC)ccc3Br)CC2)CC1.Cl.Cl` [Example 58, trans-N-(4-(2-(4-(2-bromo-5-methoxybenzyl)-piperidin-1-yl)ethyl)cyclohexyl)-N-ethyl-N-(2-methoxyethyl)amine Dihydrochloride], in assay [1], the “Rate of inhibition … (%)” value turned out to be 100%. In assay [2], the “5-HT1A receptor stimulating activity (%)” value worked out at 30%.
`CCN[C@H]1CC[C@H](CCN2CCC(Cc3cc(OC)ccc3Br)CC2)CC1.Cl.Cl` [Example 38, trans-N-(4-(2-(4-(2-bromo-5-methoxybenzyl)-piperidin-1-yl)ethyl)cyclohexyl)-N-ethylamine Dihydrochloride]: in assay [1], the “Rate of inhibition … (%)” value is on record as 100%. Further, the “5-HT1A receptor stimulating activity (%)” value in assay [2] came to 48%.
As for `CC(C)Oc1ccc(Br)c(CC2CCN(CC3CCc4ccccc4N3)CC2)c1.Cl.Cl` (centres unmarked) [Example 65, 2-((4-(2-Bromo-5-isopropoxybenzyl)piperidin-1-yl)methyl)-1,2,3,4-tetrahydroquinoline Dihydrochloride], the “Rate of inhibition … (%)” value in assay [1] is given as 97%. Besides, the “5-HT1A receptor stimulating activity (%)” value in assay [2] is given as 64%.
The corresponding values for `Cl.Cl.Clc1ccc(Br)c(CC2CCN(CC3CCc4ccccc4N3)CC2)c1` (centres unmarked) [Example 67, 2-((4-(2-Bromo-5-chlorobenzyl)piperidin-1-yl)methyl)-1,2,3,4-tetrahydroquinoline Dihydrochloride] are 81% and 74%.
Regarding `COc1ccc(Br)c(CC2CCN(CC[C@H]3CC[C@H](NC(=O)C(F)(F)F)CC3)CC2)c1.Cl` [Example 48, trans-N-(4-(2-(4-(2-bromo-5-methoxybenzyl)-piperidin-1-yl)ethyl)cyclohexyl)-2,2,2-trifluoro-acetamide Hydrochloride], the “Rate of inhibition … (%)” value in assay [1] is reported as 99%. Besides, in assay [2], the “5-HT1A receptor stimulating activity (%)” value stood at 33%.
In the case of `COc1ccc(Br)c(CC2CCN(CC[C@H]3CC[C@H](NS(=O)(=O)N(C)C)CC3)CC2)c1.Cl` [Example 47, trans-N′-(4-(2-(4-(2-bromo-5-methoxybenzyl)-piperidin-1-yl)ethyl)cyclohexyl)-N,N-dimethylsulfamide hydrochloride], in assay [1], the “Rate of inhibition … (%)” value is listed as 100%. Besides, the “5-HT1A receptor stimulating activity (%)” value in assay [2] came to 37%.
Turning to `COc1ccc(Br)c(CC2CCN(CC3CNc4ccccc4C3)CC2)c1.Cl.Cl` (centres unmarked) [Example 70, 3-((4-(2-Bromo-5-methoxybenzyl)piperidin-1-yl)methyl)-1,2,3,4-tetrahydroquinoline Dihydrochloride], the “Rate of inhibition … (%)” value in assay [1] was found to be 84%. Further, the “5-HT1A receptor stimulating activity (%)” value in assay [2] was determined as 7%.
The matching figures for `CCN(CC)[C@H]1CC[C@@H](CCCN2CCC(Cc3cc(OC)ccc3Br)CC2)CC1.Cl.Cl` [Example 54, cis-N-(4-(3-(4-(2-bromo-5-methoxybenzyl)-piperidin-1-yl)propyl)cyclohexyl)-N,N-diethylamine Dihydrochloride]: 80% and 16%.
For `CO[C@H]1CC[C@H](CCN2CCC(Cc3cc(OC(C)C)ccc3Br)CC2)CC1.Cl` [Example 44, trans-4-(2-Bromo-5-isopropoxybenzyl)-1-(2-(4-methoxycyclohexyl)ethyl)piperidine Hydrochloride], the “Rate of inhibition … (%)” value in assay [1] was found to be 99%. The “5-HT1A receptor stimulating activity (%)” value in assay [2] is on record as 51%.
As for `COc1ccc(Br)c(CC2CCN(CCC3CCN(CCO)CC3)CC2)c1.Cl.Cl` [Example 6, 2-(4-(2-(4-(2-Bromo-5-methoxybenzyl)-1-piperidinyl)ethyl)-1-piperidinyl)ethanol Dihydrochloride], the “Rate of inhibition … (%)” value in assay [1] was determined as 87%. The “5-HT1A receptor stimulating activity (%)” value in assay [2] came out at 53%.
For `CCN([C@H]1CC[C@H](CCCN2CCC(Cc3cc(OC(C)C)ccc3Br)CC2)CC1)S(C)(=O)=O.Cl` [Example 46, trans-N-(4-(3-(4-(2-bromo-5-isopropoxy-benzyl)piperidin-1-yl)propyl)cyclohexyl)-N-ethylmethanesulfonamide Hydrochloride], the “Rate of inhibition … (%)” value in assay [1] came to 100%. Further, in assay [2], the “5-HT1A receptor stimulating activity (%)” value is reported as 62%.
